Measurements from patent publication US10245261B2, “Substituted indol-5-ol derivatives and their therapeutic applications” (NantBioScience, Inc., priority 2013, dated 2019).

Tests used:
Experiment in all cases: KinaseProfiler kinase assay
Format in all cases: biochemical
c-RAF(h) = c-RAF(h) (Homo sapiens, UniProt P04049, Y340D/Y341D)
In short: (§1)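 Kinase activity is followed by incorporation of 33P from [γ-33P]ATP in 8 mM MOPS pH 7.0 with 10 mM Mg acetate and 0.2 mM EDTA over 40 min at room temperature. Inhibition is scaled between no-kinase and phosphopeptide control wells.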

IRAK4(h) = IRAK4(h) (Homo sapiens, UniProt Q9NWZ3)
In short: as §1

SAPK2a(T106M)(h) = SAPK2a(T106M)(h) (Homo sapiens, UniProt Q16539, T106M)
In short: as §1

TrkB(h) = TrkB(h) (Homo sapiens, UniProt Q16620)
In short: as §1

PDGFRα(h) = PDGFRα(h) (Homo sapiens, UniProt P16234)
In short: as §1

MuSK(h) = MuSK(h) (Homo sapiens, UniProt O15146)
In short: as §1

Pim-1(h) = Pim-1(h) (Homo sapiens, UniProt P11309)
In short: as §1

cKit(V560G)(h) = cKit(V560G)(h) (Homo sapiens, UniProt P10721, V560G)
In short: as §1

Itk(h) = Itk(h) (Homo sapiens, UniProt Q08881)
In short: as §1

IRAK1(h) = IRAK1(h) (Homo sapiens, UniProt P51617)
In short: as §1

cKit(V654A)(h) = cKit(V654A)(h) (Homo sapiens, UniProt P10721, V654A)
In short: as §1

PKA(h) = PKA(h) (Homo sapiens, UniProt P17612)
In short: as §1

NEK6(h) = NEK6(h) (Homo sapiens, UniProt Q9HC98)
In short: as §1

SAPK3(h) = SAPK3(h) (Homo sapiens, UniProt P53778)
In short: as §1

Fyn(h) = Fyn(h) (Homo sapiens, UniProt P06241)
In short: as §1

HIPK3(h) = HIPK3(h) (Homo sapiens, UniProt Q9H422)
In short: as §1

JAK3(h) = JAK3(h) (Homo sapiens, UniProt P52333)
In short: as §1

PAK2(h) = PAK2(h) (Homo sapiens, UniProt Q13177)
In short: as §1

Lck(h) activated = Lck(h) activated (Homo sapiens, UniProt P06239)
In short: as §1

PAK6(h) = PAK6(h) (Homo sapiens, UniProt Q9NQU5)
In short: as §1

IRR(h) = IRR(h) (Homo sapiens, UniProt P14616)
In short: as §1

CaMKIδ(h) = CaMKIδ(h) (Homo sapiens, UniProt Q8IU85)
In short: as §1

PKCβII(h) = PKCβII(h) (Homo sapiens, UniProt P05771)
In short: as §1

PIP5K1α(h) = PIP5K1α(h) (Homo sapiens, UniProt Q99755)
In short: as §1

EGFR(h) = EGFR(h) (Homo sapiens, UniProt P00533)
In short: as §1

MAPKAP-K2(h) = MAPKAP-K2(h) (Homo sapiens, UniProt P49137)
In short: as §1

MRCKβ(h) = MRCKβ(h) (Homo sapiens, UniProt Q9Y5S2)
In short: as §1

EphB4(h) = EphB4(h) (Homo sapiens, UniProt P54760)
In short: as §1

CDK7/cyclinH/MAT1(h) = CDK7/cyclinH/MAT1(h) (Homo sapiens, UniProt P50613)
In short: as §1

ALK(h) = ALK(h) (Homo sapiens, UniProt Q9UM73)
In short: as §1

[1] = target: PI3 Kinase (p110α(E545K)/p85α)(m) (Mus musculus, UniProt P42337, E545K)
In short: as §1

Chain of SAPK2a(T106M)(h) (Q16539 whole entry T106M): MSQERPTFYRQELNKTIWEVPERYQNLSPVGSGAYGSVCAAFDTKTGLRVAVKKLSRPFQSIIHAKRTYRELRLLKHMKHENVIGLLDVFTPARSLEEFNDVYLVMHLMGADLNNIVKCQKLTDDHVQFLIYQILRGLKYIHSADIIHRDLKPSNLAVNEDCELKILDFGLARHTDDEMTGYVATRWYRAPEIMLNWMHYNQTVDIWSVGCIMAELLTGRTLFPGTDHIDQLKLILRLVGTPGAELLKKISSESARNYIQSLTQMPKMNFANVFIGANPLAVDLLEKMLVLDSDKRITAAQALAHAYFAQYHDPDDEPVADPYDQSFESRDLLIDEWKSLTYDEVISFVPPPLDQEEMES
Chain of NEK6(h) (Q9HC98 whole entry): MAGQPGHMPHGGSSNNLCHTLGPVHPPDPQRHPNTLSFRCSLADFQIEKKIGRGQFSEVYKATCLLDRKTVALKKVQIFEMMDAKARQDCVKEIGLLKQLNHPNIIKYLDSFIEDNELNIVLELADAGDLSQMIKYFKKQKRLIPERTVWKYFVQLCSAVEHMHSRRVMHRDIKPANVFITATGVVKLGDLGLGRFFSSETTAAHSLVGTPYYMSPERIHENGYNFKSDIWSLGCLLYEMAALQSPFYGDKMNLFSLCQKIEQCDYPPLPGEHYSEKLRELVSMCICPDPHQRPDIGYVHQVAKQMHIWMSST
Chain of SAPK3(h) (P53778 whole entry): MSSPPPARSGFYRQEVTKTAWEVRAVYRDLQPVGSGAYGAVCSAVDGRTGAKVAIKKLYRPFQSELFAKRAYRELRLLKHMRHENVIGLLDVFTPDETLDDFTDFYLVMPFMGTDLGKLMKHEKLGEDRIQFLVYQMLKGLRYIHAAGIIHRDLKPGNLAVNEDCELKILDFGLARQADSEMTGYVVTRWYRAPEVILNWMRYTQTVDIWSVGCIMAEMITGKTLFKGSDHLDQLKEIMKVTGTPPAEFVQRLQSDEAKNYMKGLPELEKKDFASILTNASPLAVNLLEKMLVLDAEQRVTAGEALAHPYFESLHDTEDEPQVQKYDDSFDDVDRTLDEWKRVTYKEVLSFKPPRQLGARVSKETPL
Chain of Pim-1(h) (P11309 whole entry): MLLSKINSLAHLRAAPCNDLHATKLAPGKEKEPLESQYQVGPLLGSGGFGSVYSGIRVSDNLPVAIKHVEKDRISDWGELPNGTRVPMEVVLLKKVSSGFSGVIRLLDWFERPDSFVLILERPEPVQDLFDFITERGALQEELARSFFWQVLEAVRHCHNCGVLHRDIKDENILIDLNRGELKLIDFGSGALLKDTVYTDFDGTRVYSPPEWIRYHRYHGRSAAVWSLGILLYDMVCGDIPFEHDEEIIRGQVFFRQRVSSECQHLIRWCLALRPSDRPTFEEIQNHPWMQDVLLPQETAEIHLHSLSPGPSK
Chain of PDGFRα(h) (P16234 24-1089): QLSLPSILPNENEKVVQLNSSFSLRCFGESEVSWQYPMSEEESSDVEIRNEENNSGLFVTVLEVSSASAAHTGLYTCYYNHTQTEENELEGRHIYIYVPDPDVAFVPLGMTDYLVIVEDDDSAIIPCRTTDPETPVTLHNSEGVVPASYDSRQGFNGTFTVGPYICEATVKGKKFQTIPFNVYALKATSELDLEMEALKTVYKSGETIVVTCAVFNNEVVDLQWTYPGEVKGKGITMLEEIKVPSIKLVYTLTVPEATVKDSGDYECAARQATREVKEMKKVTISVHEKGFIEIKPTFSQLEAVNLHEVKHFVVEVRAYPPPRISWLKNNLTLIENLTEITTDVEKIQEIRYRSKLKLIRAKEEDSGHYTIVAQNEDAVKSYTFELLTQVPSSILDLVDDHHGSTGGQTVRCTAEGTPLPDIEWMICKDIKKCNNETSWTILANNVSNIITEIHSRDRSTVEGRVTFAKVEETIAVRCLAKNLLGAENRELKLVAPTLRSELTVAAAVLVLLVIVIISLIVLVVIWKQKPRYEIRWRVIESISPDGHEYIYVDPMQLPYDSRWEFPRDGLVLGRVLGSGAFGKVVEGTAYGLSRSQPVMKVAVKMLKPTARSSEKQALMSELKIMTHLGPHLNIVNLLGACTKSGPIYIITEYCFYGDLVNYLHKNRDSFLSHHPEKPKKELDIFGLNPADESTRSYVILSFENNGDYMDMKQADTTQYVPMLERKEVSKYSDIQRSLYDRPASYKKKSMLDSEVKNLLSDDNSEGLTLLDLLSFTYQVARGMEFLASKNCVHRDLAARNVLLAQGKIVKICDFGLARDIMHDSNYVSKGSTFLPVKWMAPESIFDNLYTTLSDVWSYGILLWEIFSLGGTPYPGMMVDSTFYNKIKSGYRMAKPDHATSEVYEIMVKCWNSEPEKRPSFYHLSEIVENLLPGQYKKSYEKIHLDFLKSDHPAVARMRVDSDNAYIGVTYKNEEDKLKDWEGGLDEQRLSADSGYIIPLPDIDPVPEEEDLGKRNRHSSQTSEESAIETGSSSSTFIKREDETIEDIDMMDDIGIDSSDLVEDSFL
Chain of PAK6(h) (Q9NQU5 whole entry): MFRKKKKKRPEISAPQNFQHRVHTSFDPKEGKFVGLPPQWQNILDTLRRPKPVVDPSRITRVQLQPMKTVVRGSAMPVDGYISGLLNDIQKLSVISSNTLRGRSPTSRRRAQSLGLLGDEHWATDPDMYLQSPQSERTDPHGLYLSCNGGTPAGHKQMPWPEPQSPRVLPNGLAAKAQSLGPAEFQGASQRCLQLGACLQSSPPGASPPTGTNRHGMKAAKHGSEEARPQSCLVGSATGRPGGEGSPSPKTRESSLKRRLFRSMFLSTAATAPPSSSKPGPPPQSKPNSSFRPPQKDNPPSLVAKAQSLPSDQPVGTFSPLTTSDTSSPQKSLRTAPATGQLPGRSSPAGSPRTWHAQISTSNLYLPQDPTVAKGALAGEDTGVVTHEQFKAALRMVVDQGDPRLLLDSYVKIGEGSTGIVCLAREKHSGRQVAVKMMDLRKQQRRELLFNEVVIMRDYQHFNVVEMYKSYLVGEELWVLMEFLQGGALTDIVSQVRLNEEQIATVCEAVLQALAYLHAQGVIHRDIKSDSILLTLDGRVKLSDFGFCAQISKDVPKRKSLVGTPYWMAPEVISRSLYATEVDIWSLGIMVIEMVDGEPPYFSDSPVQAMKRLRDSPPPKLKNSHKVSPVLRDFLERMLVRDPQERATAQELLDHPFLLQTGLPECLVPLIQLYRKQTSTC
Chain of JAK3(h) (P52333 whole entry): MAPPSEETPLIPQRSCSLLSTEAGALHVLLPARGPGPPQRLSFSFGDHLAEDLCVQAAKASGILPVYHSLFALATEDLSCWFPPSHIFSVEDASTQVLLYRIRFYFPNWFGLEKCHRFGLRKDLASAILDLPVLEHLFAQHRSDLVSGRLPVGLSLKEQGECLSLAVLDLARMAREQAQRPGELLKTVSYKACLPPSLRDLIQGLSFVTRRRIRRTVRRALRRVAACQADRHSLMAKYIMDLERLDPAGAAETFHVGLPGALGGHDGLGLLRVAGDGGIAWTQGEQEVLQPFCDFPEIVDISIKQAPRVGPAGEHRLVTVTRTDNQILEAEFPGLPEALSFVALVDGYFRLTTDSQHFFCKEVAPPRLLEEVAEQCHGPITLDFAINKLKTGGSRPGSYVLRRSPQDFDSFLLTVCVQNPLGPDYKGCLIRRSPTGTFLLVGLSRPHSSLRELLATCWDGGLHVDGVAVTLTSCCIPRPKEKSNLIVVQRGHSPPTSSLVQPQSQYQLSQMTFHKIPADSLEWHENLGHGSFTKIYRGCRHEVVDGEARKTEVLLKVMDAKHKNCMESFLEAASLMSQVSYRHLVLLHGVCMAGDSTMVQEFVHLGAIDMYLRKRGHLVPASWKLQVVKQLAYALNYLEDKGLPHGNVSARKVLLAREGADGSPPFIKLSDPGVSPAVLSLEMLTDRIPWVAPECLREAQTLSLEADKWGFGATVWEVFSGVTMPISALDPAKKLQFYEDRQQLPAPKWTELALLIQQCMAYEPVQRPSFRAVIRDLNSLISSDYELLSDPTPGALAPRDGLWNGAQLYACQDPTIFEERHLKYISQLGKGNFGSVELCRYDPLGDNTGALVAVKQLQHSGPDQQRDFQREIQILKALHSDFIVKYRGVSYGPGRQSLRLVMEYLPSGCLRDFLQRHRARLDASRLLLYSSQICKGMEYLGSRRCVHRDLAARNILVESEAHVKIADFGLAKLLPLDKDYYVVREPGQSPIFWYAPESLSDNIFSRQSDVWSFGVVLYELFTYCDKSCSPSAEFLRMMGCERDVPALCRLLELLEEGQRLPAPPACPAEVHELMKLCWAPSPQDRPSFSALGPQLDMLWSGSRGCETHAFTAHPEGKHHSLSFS
Chain of IRAK4(h) (Q9NWZ3 whole entry): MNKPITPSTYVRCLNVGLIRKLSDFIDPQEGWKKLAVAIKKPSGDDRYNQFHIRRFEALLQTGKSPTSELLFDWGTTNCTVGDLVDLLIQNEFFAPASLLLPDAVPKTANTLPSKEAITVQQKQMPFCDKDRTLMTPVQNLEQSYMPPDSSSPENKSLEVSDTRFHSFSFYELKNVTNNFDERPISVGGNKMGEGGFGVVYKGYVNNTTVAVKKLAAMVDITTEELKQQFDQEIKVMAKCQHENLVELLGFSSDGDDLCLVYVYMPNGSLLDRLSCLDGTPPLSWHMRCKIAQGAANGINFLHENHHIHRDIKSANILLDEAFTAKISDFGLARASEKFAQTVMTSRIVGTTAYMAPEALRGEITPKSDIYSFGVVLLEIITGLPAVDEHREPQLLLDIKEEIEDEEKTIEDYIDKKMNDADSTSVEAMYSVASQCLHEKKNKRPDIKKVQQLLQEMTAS

Row | Compound | inhibition at 0.1 µM (c-RAF(h)) [%] | inhibition at 0.1 µM (IRAK4(h)) [%] | inhibition at 0.1 µM (SAPK2a(T106M)(h)) [%] | inhibition at 0.1 µM (TrkB(h)) [%] | inhibition at 0.1 µM (PDGFRα(h)) [%] | inhibition at 0.1 µM (MuSK(h)) [%] | inhibition at 0.1 µM (Pim-1(h)) [%] | inhibition at 0.1 µM (cKit(V560G)(h)) [%] | inhibition at 0.1 µM (Itk(h)) [%] | inhibition at 0.1 µM (IRAK1(h)) [%] | inhibition at 0.1 µM (cKit(V654A)(h)) [%] | inhibition at 0.1 µM (PKA(h)) [%] | inhibition at 0.1 µM (NEK6(h)) [%] | inhibition at 0.1 µM (SAPK3(h)) [%] | inhibition at 0.1 µM (Fyn(h)) [%] | inhibition at 0.1 µM (HIPK3(h)) [%] | inhibition at 0.1 µM (JAK3(h)) [%] | inhibition at 0.1 µM (PAK2(h)) [%] | inhibition at 0.1 µM (Lck(h) activated) [%] | inhibition at 0.1 µM (PAK6(h)) [%] | other results
1 | Cc1cc2c(F)c(Oc3nc(Nc4cc(C5CC5)[nH]n4)cc(N4CCN(C)CC4)n3)ccc2[nH]1 [Compound 10] | 6 | 37 | 2 | 103 | -3 | 30 | -21 | 89 | 31 | -2 | 35 | 2 | -11 | -4 | 102 | -1 | 86 | 16 | 97 | 0 | inhibition at 0.1 µM (IRR(h)): 91%; inhibition at 0.1 µM (CaMKIδ(h)): 6%; inhibition at 0.1 µM (PKCβII(h)): 3%; inhibition at 0.1 µM (PIP5K1α(h)): -2%; inhibition at 0.1 µM (EGFR(h)): -8%; inhibition at 0.1 µM (MAPKAP-K2(h)): -7%; inhibition at 0.1 µM (MRCKβ(h)): -6%; inhibition at 0.1 µM (EphB4(h)): 85%; inhibition at 0.1 µM (CDK7/cyclinH/MAT1(h)): 44%; inhibition at 0.1 µM (ALK(h)): 87%; inhibition at 0.1 µM [1]: 0%
2 | Cc1cc2c(F)c(Oc3nc(Nc4cc(C5CC5)[nH]n4)cc(N4CCNCC4)n3)ccc2[nH]1 [Compound 11, N-(5-cyclopropyl-1H-pyrazol-3-yl)-2-((4-fluoro-2-methyl-1H-indol-5-yl)oxy)-6-(piperazin-1-yl)pyrimidin-4-amine] | 1 | 13 | 3 | 100 | 29 | 20 | -9 | 94 | 54 | -9 | 53 | -12 | -11 | -24 | 99 | -3 | 86 | 0 | 100 | 35 | inhibition at 0.1 µM (IRR(h)): 95%; inhibition at 0.1 µM (CaMKIδ(h)): 5%; inhibition at 0.1 µM (PKCβII(h)): -3%; inhibition at 0.1 µM (PIP5K1α(h)): -3%; inhibition at 0.1 µM (EGFR(h)): -6%; inhibition at 0.1 µM (MAPKAP-K2(h)): -10%; inhibition at 0.1 µM (MRCKβ(h)): -16%; inhibition at 0.1 µM (EphB4(h)): 85%; inhibition at 0.1 µM (CDK7/cyclinH/MAT1(h)): 26%; inhibition at 0.1 µM (ALK(h)): 86%; inhibition at 0.1 µM [1]: 1%
